Test results from patent US5219741A, “Method of making L-proline using an N-acyl-L-protine acylase” (priority 1990, dated 1993).
“Also recorded” adds a separate entry of the source. Where two headings read alike, the source gives them in different places.

Assays:
[1] = tested on: N-acyl-L-proline acylase; type: biochemical, Comamonas testosteroni DSM 5416; details: native enzyme; for Activity (%): no agent = 100
Description: (§1) The enzymatic reaction was interrupted by pipetting 50 μl of the enzyme sample into 1.25 ml 100% acetic acid. Subsequently, 0.45 ml 0.1M tris-HCl buffer pH 7.0 and 1.25 ml ninhydrin reagent (3 g ninhydrin dissolved by heating in a mixture of 60 ml 100% acetic acid and 40 ml 6M phosphoric acid) were added. The ninhydrin reagent was freshly prepared daily. The test tubes were loosely closed with screw-on caps, incubated 30 minutes at 100° C. and subsequently cooled down in an ice bath.
(§2) The L-proline, liberated by the enzymatic hydrolysis, forms a red dye with ninhydrin at 100° C. The absorption of the red dye was measured in a spectrophotometer at 480 nm relative to a control batch without crude extract (=substrate blank). The concentration of the L-proline produced was determined using a straight calibration line with L-proline in a range of 5 to 100 nmoles per 50 μl specimen. The enzyme activity was indicated in international units; thus, one unit (U) corresponded to an amount of 1 μmole L-proline produced per minute.
The influence of various chemical agents as well as metal cations and anions on the reaction speed of the hydrolytic splitting of N-acetyl-L-proline was determined at 30° C. in a reaction batch with the following composition: […]
The enzyme was pre-incubated for 10 minutes at 30° C. with the compound before the addition of substrate to start the reaction.
The enzyme was pre-incubated for 10 minutes at 30° C. with the agent before the substrate was added to start the reaction.
The enzyme was pre-incubated 10 minutes at 30° C. with the agent before the substrate was added to start the reaction. The concentration of the anions was 10 mM in each instance.

[2] = tested on: 1,10-phenanthroline-inactivated acylase (apoenzyme); test: Influence of cations on the 1,10-phenanthroline-inactivated acylase; type: biochemical, Comamonas testosteroni DSM 5416; details: for Influence on the apoenzyme (in words): 1,10-phenanthroline-inactivated acylase; for Activity (%): inactivated enzyme after gel filtration + cation 1 mM, native enzyme = 100, no agent = 21
Description: FPLC/Mono Q purified enzyme was incubated for 24 hours at 4° C. in the presence of 1 mM 1,10-phenanthroline. Subsequently, enzyme and the chelating agent 1,10-phenanthroline were separated by gel filtration via Sephadex G-25M (PD-10, firm Pharmacia/LKB, Uppsala, Sweden). The enzyme-containing fractions were combined and the activity determined without and in the presence of various cations (1 mM).

[3] = tested on: N-acyl-L-proline acylase; test: Substrate specificity: hydrolysis of N-acyl amino acids and proline derivatives; type: biochemical, Comamonas testosteroni DSM 5416
Description: The activity of acylase was determined with various N-acetyl-L-amino acids and N-chloroacetyl-L-amino acids in a reaction batch with the following composition:
The reaction temperature was 30° C. and the incubation time 15 minutes to 24 hours. 0.2 ml samples of the reaction batch in each instance were mixed at different times with 0.2 ml 10% (w/v) trichloroacetic acid and the denatured protein centrifuged off for 10 minutes at 11,000 rpms in a table centrifuge. The supernatant was diluted with a 0.1M Na citrate buffer pH 2.2 with 25% (v/v) 2.2-thiodiethanol and 0.1% (v/v) phenol 1:5 and 1:50 respectively. The amino acids released were quantitatively detected by an amino-acid analyzer LC 5001 of the firm Biotronic, Maintal, Federal Republic of Germany. In Table 16, the substrates marked with * and the corresponding products were quantified by means of HPLC.
The activity of the acylase was determined with various proline derivatives as under a).

[4] = tested on: N-acyl-L-proline acylase; test: Stereospecificity of hydrolysis of N-acetyl-D,L-proline; type: biochemical, Comamonas testosteroni DSM 5416
Description: The hydrolysis of N-acyl-L-proline, N-acetyl-D,L-proline and N-acetyl-D-proline was determined in the following reaction mixture:
The reaction mixture was incubated for two hours at 30° C. and the L-proline produced was determined by amino acid analysis as in Example 10.

[5] = tested on: N-acyl-L-proline acylase; test: Dependence of the acylase activity on the substrate concentration (KM); type: biochemical, Comamonas testosteroni DSM 5416; details: 30° C., 0.1M tris-HCl buffer, pH 7.0
Description: The reaction temperature was 30° C. and the incubation time 10 minutes. The N-acetyl-L-proline concentration of the reaction batch was varied in a range from 1 to 50 mM.

[6] = tested on: Comamonas testosteroni DSM 5416; test: Growth of the strain in culture medium (OD600); type: cell-based
Description: Strains which appeared uniform according to the colony morphology and the microscopic image were then cultivated in 100 ml liquid medium (500 ml Erlenmeyer flask with top and 4 lateral baffles) at 30° C. on a rotary agitator machine at 200 rpms. The culture medium had the following composition: […]
(§3) The carbon source of the culture medium with a concentration of 4 g/l was varied and the influence on growth and acylase formation determined.
(§4) The concentration of N-acetyl-L-proline was varied in a range of 1 g/l-5 g/l in steps of 1 g/l in the culture medium as described in Example 1.
(§5) The concentration of (NH4)2 SO4 was varied in a range of 1 g/l-5 g/l in steps of 1 g/l in the culture medium as described in Example 1.
(§6) The concentration of yeast extract was varied in a range of 1 g/l-5 g/l in steps of 1 g/l in the culture medium as described in Example 1.
(§7) The N-acetyl-L-proline concentration was reduced to 0.2 to 1.0 g/l in the culture medium as described in Example 1 and 4 g/l Na acetate were additionally added.
(§8) The method described above under f) was followed. However, the inductor, N-acetyl-L-proline, was not added to the nutrient medium until the late exponential growth phase after an incubation time of 12 hours.
(§9) The method described above under f) was followed. In addition to N-acetyl-L-proline, various N-acetyl- and N-chloroacetyl amino acids were added to the nutrient medium in a concentration of 1 g/l.

[7] = tested on: N-acyl-L-proline acylase formation in Comamonas testosteroni DSM 5416; test: Acylase formation: specific activity of N-acyl-L-proline acylase in crude extract; type: cell-based
Description: After 24 to 48 hours, the cell-containing nutrient medium was centrifuged (15 min., 4,500 g in a cooling centrifuge), the cells were washed twice with 0.9% (w/v) NaCl solution and resuspended in 10 ml 0.1M tris-HCl buffer, pH 7.0.
The microorganisms of this suspension were macerated by ultrasound treatment (Sonifier-Cell Disrupter B-30 of the firm Branson Sonic Power Co., Danbury, Conn., USA) (2 minutes pulsating, corresponding to 1 minute of pure ultrasonic radiation. The cell fragments and non-macerated cells were centrifuged in a cooled centrifuge 30 minutes at 40,000 g and 5° C. The clear supernatant (=crude extract) was used in an enzyme test.
The reaction was started by adding crude extract and the reaction batches customarily incubated for 10 minutes at 30° C. The incubation time and the amount of crude extract were selected so that the linearity range of the enzymatic reaction and of the subsequent proline detection were not exceeded.
as §1, §2
The protein determination was carried out with a protein-determination kit of the firm Pierce Chemical Co., Rockford, Ill., USA, according to Bradford, Anal. Biochem. 72, pp. 248-254 (1976).
as §3, §4, §5, §6, §7, §8, §9

[8] = N-acetyl-L-proline 0.2 g/l + 4 g/l Na acetate, 34 hours
[9] = N-acetyl-L-proline 0.2 g/l added after 12 hours (late exponential growth phase), Na acetate medium, 24 hours further
[10] = N-acetyl-L-proline 0.4 g/l + 4 g/l Na acetate, 34 hours
[11] = N-acetyl-L-proline 0.4 g/l added after 12 hours (late exponential growth phase), Na acetate medium, 24 hours further
[12] = N-acetyl-L-proline 0.6 g/l + 4 g/l Na acetate, 34 hours
[13] = N-acetyl-L-proline 0.6 g/l added after 12 hours (late exponential growth phase), Na acetate medium, 24 hours further
[14] = N-acetyl-L-proline 0.8 g/l + 4 g/l Na acetate, 34 hours
[15] = N-acetyl-L-proline 0.8 g/l added after 12 hours (late exponential growth phase), Na acetate medium, 24 hours further
[16] = N-acetyl-L-proline 1.0 g/l + 4 g/l Na acetate, 34 hours
[17] = N-acetyl-L-proline 1.0 g/l added after 12 hours (late exponential growth phase), Na acetate medium, 24 hours further
[18] = N-acetyl-L-proline 1 g/l in culture medium, 24 hours
[19] = N-acetyl-L-proline 2 g/l in culture medium, 24 hours
[20] = N-acetyl-L-proline 3 g/l in culture medium, 24 hours
[21] = N-acetyl-L-proline 4 g/l in culture medium, 24 hours
[22] = N-acetyl-L-proline 5 g/l in culture medium, 24 hours
[23] = carbon source 4 g/l in culture medium
[24] = inductor 1 g/l + 4 g/l Na acetate, 24 hours

[Cl][Sn][Cl] [SnCl2] was tested, and the “Activity (%)” value ([1]; metal cation salt 1 mM) was 72%, the “Activity (%)” value ([1]; metal cation salt 10 mM) was 55% and the “Influence on the acylase activity (in words)” value [1] was “inhibiting action”. For the same compound, the “Influence on the apoenzyme (in words)” value [2] was “inhibited” and the “Activity (%)” value [2] was 10%.

With O=S(=O)([O-])[O-].[Cu+2] [CuSO4] the “Activity (%)” value ([1]; metal cation salt 1 mM) was 61%, the “Activity (%)” value ([1]; metal cation salt 10 mM) was 19% and the “Influence on the acylase activity (in words)” value [1] was “inhibiting action”. For the same compound, the “Influence on the apoenzyme (in words)” value [2] was “inhibited” and the “Activity (%)” value [2] was 6%.

[Cl][Hg][Cl] [HgCl2] was tested, and the “Activity (%)” value ([1]; metal cation salt 1 mM) was 67%, the “Activity (%)” value ([1]; metal cation salt 10 mM) was 9% and the “Influence on the acylase activity (in words)” value [1] was “inhibiting action”. For the same compound, the “Influence on the apoenzyme (in words)” value [2] was “inhibited” and the “Activity (%)” value [2] was 6%.

With CC(=O)N1CCC[C@H]1C(=O)O [N-acetyl-L-proline] the “Hydrolysis by the acylase (in words)” value [3] was “hydrolyzed especially well”, the “Rel. activity (%)” value ([3]; 20 mM substrate 1.0 ml in 2.0 ml batch, 30° C., pH 7.0, N-acetyl-L-proline = 100%, amino-acid analyzer) was 100% and the “Hydrolysis by the acylase (in words)” value ([3]; listed as N-acetyl-L proline) was “hydrolyzes”. The “Relative Activity (%)” value ([3]; proline derivatives, 30° C., pH 7.0, N-acetyl-L-proline = 100%) was 100%, the “Stereospecific hydrolysis (in words)” value [4] was “hydrolyzes” and the “L-proline (mmol/l) produced” value ([4]; substrate 10 mmol/l, two hours at 30° C., pH 7.0) was 10.25 mmol/L. For the same compound, the Km [5] was 5 mM, the “Growth (OD600)” value [6, 8] was 2.27 OD600 and the “Growth (OD600)” value [6, 9] was 2.22 OD600. For the same compound, the “Growth (OD600)” value [6, 10] was 2.90 OD600, the “Growth (OD600)” value [6, 11] was 2.28 OD600 and the “Growth (OD600)” value [6, 12] was 2.75 OD600. The “Growth (OD600)” value [6, 13] was 2.76 OD600, the “Growth (OD600)” value [6, 14] was 3.04 OD600 and the “Growth (OD600)” value [6, 15] was 2.95 OD600. The “Growth (OD600)” value [6, 16] was 3.12 OD600, the “Growth (OD600)” value [6, 17] was 2.88 OD600 and the “Growth (OD600)” value [6, 18] was 1.95 OD600. The “Growth (OD600)” value [6, 19] was 3.16 OD600, the “Growth (OD600)” value [6, 20] was 4.32 OD600 and the “Growth (OD600)” value [6, 21] was 5.42 OD600. For the same compound, the “Growth (OD600)” value [6, 22] was 5.68 OD600, the “Growth (OD600)” value [6, 23] was 6.0 OD600 and the “Growth (OD600)” value [6, 24] was 3.46 OD600. The “Acylase formation / induction (in words)” value [7] was “only formed; also recorded: induced acylase formation”, the “Optimum concentration in the culture medium for acylase formation” value [7] was 4 g/L and the “Spec. activity (U/mg)” value [7, 8] was 0.53 U/mg. For the same compound, the “Spec. activity (U/mg)” value [7, 9] was 0.50 U/mg, the “Spec. activity (U/mg)” value [7, 10] was 0.79 U/mg and the “Spec. activity (U/mg)” value [7, 11] was 0.63 U/mg. The “Spec. activity (U/mg)” value [7, 12] was 1.41 U/mg, the “Spec. activity (U/mg)” value [7, 13] was 0.96 U/mg and the “Spec. activity (U/mg)” value [7, 14] was 1.70 U/mg. The “Spec. activity (U/mg)” value [7, 15] was 0.67 U/mg, the “Spec. activity (U/mg)” value [7, 16] was 1.55 U/mg and the “Spec. activity (U/mg)” value [7, 17] was 1.08 U/mg. For the same compound, the “Spec. activity (U/mg)” value [7, 18] was 1.33 U/mg, the “Spec. activity (U/mg)” value [7, 19] was 1.36 U/mg and the “Spec. activity (U/mg)” value [7, 20] was 1.77 U/mg. The “Spec. activity (U/mg)” value [7, 21] was 1.84 U/mg, the “Spec. activity (U/mg)” value [7, 22] was 0.94 U/mg and the “Spec. activity (U/mg)” value [7, 23] was 2.26 U/mg. The “Spec. activity (U/mg)” value [7, 24] was 1.34 U/mg.

With [Cl][Cd][Cl] [CdCl2] the “Activity (%)” value ([1]; metal cation salt 1 mM) was 89%, the “Activity (%)” value ([1]; metal cation salt 10 mM) was 65% and the “Influence on the acylase activity (in words)” value [1] was “inhibiting action”. The “Activity (%)” value [2] was 20%.
